From ChEMBL document CHEMBL5096149, “Recent Update on Targeting c-MYC G-Quadruplexes by Small Molecules for Anticancer Therapeutics” (J Med Chem, 2021)

Experiments:
Quadruplex DNA [1] = experiment: Binding affinity to c-MYC G-quadruplex DNA (unknown origin) assessed as association rate constant by fluorometric titration method; format: nucleic-acid assay
Quadruplex DNA [2] = experiment: Thermal stabilization of c-MYC G-quadruplex DNA (unknown origin) assessed as change in melting temperature at 1:10 ratio by FRET melting assay; format: nucleic-acid assay
Quadruplex DNA [3] = experiment: Thermal stabilization of c-MYC G-quadruplex DNA (unknown origin) assessed as change in melting temperature at 1:5 ratio by circular dichroism spectroscopy; format: nucleic-acid assay
Quadruplex DNA [4] = experiment: Binding affinity to c-MYC G-quadruplex DNA (unknown origin) assessed as association constant by fluorescence spectroscopy; format: nucleic-acid assay
Quadruplex DNA [5] = experiment: Thermal stabilization of c-MYC G-quadruplex DNA (unknown origin) assessed as change in melting temperature at 1:5 ratio by FRET melting assay; format: nucleic-acid assay
HeLa [6] = experiment: Antiproliferative activity against human HeLa cells assessed as inhibition of cell growth by XTT assay; format: functional, cell-based
A549 = experiment: Antiproliferative activity against human A549 cells assessed as inhibition of cell growth by XTT assay; format: functional, cell-based
[7] = Antiproliferative activity against human Kidney epithelial cells assessed as inhibition of cell growth by XTT assay; format: toxicity, cell-based
Quadruplex DNA [8] = experiment: Binding affinity to c-MYC G-quadruplex (Mer22) DNA (unknown origin) assessed as first order binding constant by isothermal titration calorimetry method; format: nucleic-acid assay
Quadruplex DNA [9] = experiment: Binding affinity to c-MYC G-quadruplex (Mer22) DNA (unknown origin) assessed as second order binding constant by isothermal titration calorimetry method; format: nucleic-acid assay
Quadruplex DNA [10] = experiment: Binding affinity to c-MYC G-quadruplex (Mer22) DNA (unknown origin) assessed as association rate constant by surface plasmon resonance analysis; format: nucleic-acid assay
Quadruplex DNA [11] = experiment: Thermal stabilization of c-MYC G-quadruplex (Mer22) DNA (unknown origin) assessed as change in melting temperature at 1:3 ratio by UV-Vis spectroscopy; format: nucleic-acid assay
Quadruplex DNA [12] = experiment: Thermal stabilization of c-MYC G-quadruplex (Mer22) DNA (unknown origin) assessed as change in melting temperature at 1:3 ratio by FRET melting assay; format: nucleic-acid assay
HeLa [13] = experiment: Antiproliferative activity against human HeLa cells assessed as inhibition of cell growth incubated for 24 hrs by XTT assay; format: functional, cell-based
HCT-116 [14] = experiment: Antiproliferative activity against human HCT-116 cells assessed as inhibition of cell growth incubated for 24 hrs by XTT assay; format: functional, cell-based; conditions: HCT-116, 24 h
[15] = Antiproliferative activity against human Kidney epithelial cells assessed as inhibition of cell growth incubated for 24 hrs by XTT assay; format: toxicity, cell-based
Quadruplex DNA [16] = experiment: Binding affinity to c-MYC G-quadruplex DNA (unknown origin) assessed as association rate constant by UV-Vis spectroscopy; format: nucleic-acid assay
Quadruplex DNA [17] = experiment: Thermal stabilization of c-MYC G-quadruplex DNA (unknown origin) assessed as change in melting temperature at 1:3 ratio by circular dichroism spectroscopy; format: nucleic-acid assay
Quadruplex DNA [18] = experiment: Thermal stabilization of c-MYC G-quadruplex DNA (unknown origin) assessed as change in melting temperature at 1:2 ratio by circular dichroism spectroscopy; format: nucleic-acid assay
L-363 = experiment: Cytotoxicity against human L-363 cells assessed as inhibition of cell viability incubated for 72 hrs by MTS assay; format: functional, cell-based; conditions: L-363, 72 h
[19] = Cytotoxicity against human ARD cells assessed as inhibition of cell viability incubated for 72 hrs by MTS assay; format: functional, cell-based
[20] = Cytotoxicity against human JIM1 cells assessed as inhibition of cell viability incubated for 72 hrs by MTS assay; format: functional, cell-based; conditions: JIM1, 72 h
[21] = Cytotoxicity against human KMM-1 cells assessed as inhibition of cell viability incubated for 72 hrs by MTS assay; format: functional, cell-based; conditions: KMM-1, 72 h
KMS-12-PE = experiment: Cytotoxicity against human KMS-12-PE cells assessed as inhibition of cell viability incubated for 72 hrs by MTS assay; format: functional, cell-based
[22] = Cytotoxicity against human KMS-27 cells assessed as inhibition of cell viability incubated for 72 hrs by MTS assay; format: functional, cell-based; conditions: KMS-27, 72 h
AMO1 = experiment: Cytotoxicity against human AMO1 cells assessed as inhibition of cell viability incubated for 72 hrs by MTS assay; format: functional, cell-based; conditions: AMO1, 72 h
Quadruplex DNA [23] = experiment: Binding affinity to c-MYC G-quadruplex DNA (unknown origin) assessed as association rate constant by surface plasmon resonance analysis; format: nucleic-acid assay
Quadruplex DNA [24] = experiment: Thermal stabilization of c-MYC G-quadruplex DNA (unknown origin) assessed as change in melting temperature at 1:4 ratio by circular dichroism spectroscopy; format: nucleic-acid assay
[25] = Cytotoxicity against human OPM-1 cells assessed as inhibition of cell viability incubated for 72 hrs by MTS assay; format: functional, cell-based; conditions: OPM-1, 72 h
[26] = Cytotoxicity against human Karpas-417 cells assessed as inhibition of cell viability incubated for 72 hrs by MTS assay; format: functional, cell-based; conditions: Karpas-417, 72 h
NCI-H929 = experiment: Cytotoxicity against human NCI-H929 cells assessed as inhibition of cell viability incubated for 72 hrs by MTS assay; format: functional, cell-based; conditions: NCI-H929, 72 h
CA46 [27] = experiment: Cytotoxicity against human CA46 cells assessed as inhibition of cell viability incubated for 72 hrs by MTS assay; format: functional, cell-based; conditions: CA46, 72 h
[28] = Cytotoxicity against human HEK293T cells assessed as inhibition of cell viability incubated for 72 hrs by MTS assay; format: toxicity, cell-based, HEK-293T
[29] = Cytotoxicity against human Fibroblast cells assessed as inhibition of cell viability incubated for 72 hrs by MTS assay; format: toxicity, cell-based
HCT-116 [30] = experiment: Cytotoxicity against human HCT-116 cells assessed as reduction in cell viability incubated for 24 hrs by MTT assay; format: functional, cell-based; conditions: HCT-116, 24 h
Quadruplex DNA [31] = experiment: Binding affinity to c-MYC G-quadruplex DNA (unknown origin) assessed as first order binding constant by surface plasmon resonance analysis; format: nucleic-acid assay
Quadruplex DNA [32] = experiment: Binding affinity to c-MYC G-quadruplex DNA (unknown origin) assessed as second order binding constant by surface plasmon resonance analysis; format: nucleic-acid assay
Quadruplex DNA [33] = experiment: Thermal stabilization of c-MYC G-quadruplex (Pu47) DNA (unknown origin) assessed as change in melting temperature at 1:5 ratio by FRET melting assay; format: nucleic-acid assay
Raji = experiment: Cytotoxicity against human Raji cells assessed as reduction in cell viability by MTS assay; format: functional, cell-based
CA46 [34] = experiment: Cytotoxicity against human CA46 cells assessed as reduction in cell viability by MTS assay; format: functional, cell-based

## c1cc2ccc3ccc4nc3c2nc1CNCCCCCCNCc1ccc2ccc3ccc(nc3c2n1)CNCCCCCCNC4
Quadruplex DNA [1]
  Ka: 1.3 10^5/M
Quadruplex DNA [2]
  ΔTm: 17.2 °C
Quadruplex DNA [3]
  ΔTm: 15.1 °C

## CN(C)CCCNC(=O)c1csc(NC(=O)c2csc(NC(=O)c3csc(N)n3)n2)n1
Quadruplex DNA [4]
  Ka: 4 10^6/M
Quadruplex DNA [5]
  ΔTm: 22 °C
HeLa [6]
  IC50: 3.8 µM
A549
  IC50: 3.2 µM
[7]
  IC50: > 50 µM

## NCCC(=O)NCC1=C2CNC(=O)C3=CC(CNC(=O)CCN)=C(CNC(=O)c4cc(CNC(=O)CCN)c(o4)CNC(=O)C4=CC(CNC(=O)CCN)=C(CNC(=O)C(=C1)O2)O4)O3
Quadruplex DNA [8]
  K: 7.71 10^7/M
Quadruplex DNA [9]
  K: 5.2 10^5/M
Quadruplex DNA [10]
  Ka: 4.85 10^6/M
Quadruplex DNA [11]
  ΔTm: 25 °C
Quadruplex DNA [12]
  ΔTm: 23 °C

## CN(C)CCCNC(=O)c1ccc(-n2cc(-c3ccc4c(c3)c3ccccc3n4CCCN(C)C)nn2)cc1
Quadruplex DNA [4]
  Ka: 4.76 10^6/M
Quadruplex DNA [5]
  ΔTm: 15.8 °C
HeLa [13]
  IC50: 3.4 µM
HCT-116 [14]
  IC50: 3.2 µM
[15]
  IC50 at 24 h: > 30 µM

## CN(C)CCn1c(NC(=O)c2ccc3ccc4ccc(C(=O)Nc5nc6ccccc6n5CCN(C)C)nc4c3n2)nc2ccccc21
Quadruplex DNA [16]
  Ka: 2.41 10^5/M
Quadruplex DNA [17]
  ΔTm: 19.6 °C

## CN(C)c1ccc2cc3c([n+](CCCCCCCCNC(=O)c4ccc(I)cc4)c2c1)C=CCC3
Quadruplex DNA [1]
  Ka: 7.4 10^7/M
Quadruplex DNA [18]
  ΔTm: 33.9 °C

## C/C(=N/Nc1nc2ccccc2s1)c1ccc(-c2cccc(C(=O)NCCCN(C)C)c2)o1
Quadruplex DNA [4]
  Ka: 1.3 10^5/M
Quadruplex DNA [5]
  ΔTm: 15.3 °C

## CC1=CC2(c3cc(C)ccn3)C(=O)C=C(c3ccc4ccccc4c3)N2C=C1 (centres undefined)
Quadruplex DNA [4]
  Ka: 1 10^6/M

## Cc1oc2ccc(O)c(CN3CCCCCC3)c2c1C(=O)Nc1ccc(C(F)(F)F)cc1
Quadruplex DNA [4]
  Ka: 1.06 10^5/M
L-363
  IC50: 3.4 µM
[19]
  IC50: 5.75 µM
[20]
  IC50: 6.35 µM
[21]
  IC50: 4.13 µM
KMS-12-PE
  IC50: 5.3 µM
[22]
  IC50: 5.06 µM
AMO1
  IC50: 5.92 µM
Quadruplex DNA [23]
  Ka: 7.14 10^5/M
Quadruplex DNA [24]
  ΔTm: 7.5 °C
[25]
  IC50: 6.48 µM
[26]
  IC50: 4.8 µM
NCI-H929
  IC50: 4.89 µM
CA46 [27]
  IC50: 9.2 µM
[28]
  IC50 at 72 h: 34 µM
[29]
  IC50 at 72 h: 19.6 µM

## CN(C)CCCNC(=O)c1ccc(-n2cc(-c3ccc4c(c3)c3ccccc3n4-c3ccc(C(=O)NCCCN(C)C)cc3)nn2)cc1
Quadruplex DNA [4]
  Ka: 5.9 10^6/M
Quadruplex DNA [2]
  ΔTm: 19.3 °C
HCT-116 [30]
  IC50: 2.1 µM

## Cc1c2ccncc2c(C)c2c1[nH]c1ccc(OCCN(C)C)cc12
Quadruplex DNA [31]
  K: 1 10^7/M
Quadruplex DNA [32]
  K: 0.7 10^6/M
Quadruplex DNA [33]
  ΔTm: 21 °C
Raji
  IC50: 2.6 µM
CA46 [34]
  IC50: 13 µM
